Here are results for 27 compounds from patent publication US9890133B2 (priority 2011, dated 2018).

In general, EC50 refers to the concentration needed to bring the measured effect to its halfway point.

In brackets after ≈: the same amount, converted by molar mass.

The test system of data set [1] is Poliovirus 3. The data set can be described thus: microbe, parasite or virus in culture. It is filed as cell-based. Particulars: Enterovirus C, read-out: Poliovirus3 EC50.
A short description of data set [2]: in vitro. Particulars: human.

In the case of `CCCCC(=O)NC12C(=O)c3c(N)cccc3C1(OC(=O)CCCC)Oc1cc(C(C)C)ccc12` (stereo not shown) [Example 96, 1-Amino-7-isopropyl-10-oxo-9b-pentanamido-9b,10-dihydro-4bH-benzo[d]indeno[1,2-b]furan-4b-yl pentanoate], in data set [1], the 50% effective concentration (EC50) came to 0.016 µg/mL (≈ 0.0334 µM). In addition, the CC50 in data set [2] was 24 µg/mL (≈ 50.1 µM); in data set [2] (Picorana CC50), above 50 µg/mL.

Consider `COC(=O)OC12Oc3cc(C(C)C)ccc3C1(NC(C)=O)C(=O)c1c(N)cccc12` (stereo not shown) [Example 113, 9b-acetamido-1-amino-7-isopropyl-10-oxo-9b,10-dihydro-4bH-indeno[1,2-b]benzofuran-4b-yl methyl carbonate], for which the half-maximal effective concentration (EC50) in data set [1] was below 0.01 µg/mL. Moreover, the CC50 turned out to be 48.8 µg/mL (≈ 119 µM) in data set [2] and 45.5 µg/mL (≈ 111 µM) in data set [2] (Picorana CC50).

As to `CC(C)c1ccc2c(c1)OC1(O)c3cccc(N)c3C(=O)C21NC(=O)C(C)(C)C` (stereo not shown) [Example 114, N-(1-Amino-4b-hydroxy-7-isopropyl-10-oxo-9b,10-dihydro-4bH-benzo[d]indeno[1,2-b]furan-9b-yl)pivalamide], in data set [1], the EC50 was found to be 0.034 µg/mL (≈ 0.0862 µM). Moreover, the CC50 was determined as 43.1 µg/mL (≈ 109 µM) in data set [2] and 45.9 µg/mL (≈ 116 µM) in data set [2] (Picorana CC50).

With `CCCCOC(=O)OC12Oc3cc(C(C)C)ccc3C1(NC(C)=O)C(=O)c1c(N)cccc12` (stereo not shown) [Example 115, 9b-Acetamido-1-amino-7-isopropyl-10-oxo-9b,10-dihydro-4bH-benzo[d]indeno[1,2-b]furan-4b-yl butyl carbonate], the 50% effective concentration (EC50) in data set [1] was below 0.01 µg/mL. Moreover, the CC50 amounted to 23.1 µg/mL (≈ 51.1 µM) in data set [2] and 42.8 µg/mL (≈ 94.6 µM) in data set [2] (Picorana CC50).

`CCOC(=O)OC12Oc3cc(C(C)C)ccc3C1(NC(C)=O)C(=O)c1c(N)cccc12` (stereo not shown) [Example 123, 9b-Acetamido-1-amino-7-isopropyl-10-oxo-9b,10-dihydro-4bH-benzo[d]indeno[1,2-b]furan-4b-yl ethyl carbonate]: the EC50 in data set [1] is below 0.01 µg/mL. For the same compound, the results for the CC50 in data set [2] and in data set [2] (Picorana CC50) were 43.4 µg/mL (≈ 102 µM) and 37.5 µg/mL (≈ 88.4 µM), respectively.

`CCC(=O)NC12C(=O)c3c(N)cccc3C1(O)Oc1cc(C(C)C)ccc12` (stereo not shown) [Example 143, N-(1-Amino-4b-hydroxy-7-isopropyl-10-oxo-9b,10-dihydro-4bH-indeno[1,2-b]benzofuran-9b-yl)propionamide]: in data set [1], the EC50 is below 0.01 µg/mL. For the same compound, the CC50 in data set [2] was 58.1 µg/mL (≈ 158 µM); in data set [2] (Picorana CC50), above 50 µg/mL.

Regarding `CCCC(=O)NC12C(=O)c3c(N)cccc3C1(O)Oc1cc(C(C)C)ccc12` (stereo not shown) [Example 144, N-(1-Amino-4b-hydroxy-7-isopropyl-10-oxo-9b,10-dihydro-4bH-indeno[1,2-b]benzofuran-9b-yl) butyramide], the EC50 in data set [1] is below 0.01 µg/mL. Moreover, the CC50 in data set [2] stood at 21.7 µg/mL (≈ 57.1 µM); in data set [2] (Picorana CC50), 35.5 µg/mL (≈ 93.3 µM).

Consider `Cc1onc(-c2c(F)cccc2Cl)c1C(=O)NC12C(=O)c3c(N)cccc3C1(O)Oc1cc(C(C)C)ccc12` (stereo not shown) [Example 228, N-(1-Amino-4b-hydroxy-7-isopropyl-10-oxo-9b,10-dihydro-4bH-indeno[1,2-b]benzofuran-9b-yl)-3-(2-chloro-6-fluorophenyl)-5-methylisooxazole-4-carboxamide], for which the CC50 in data set [2] is above 10 µg/mL; in data set [2] (Picorana CC50), 24.1 µg/mL (≈ 43.9 µM).

In the case of `CC(C)c1ccc2c(c1)OC1(O)c3ccccc3C(=O)C21NC(=O)c1cc(-c2ccccc2)n[nH]1` (stereo not shown) [Example 229, N-(4b-hydroxy-7-isopropyl-10-oxo-9b,10-dihydro-4bH-indeno[1,2-b]benzofuran-9b-yl)-3-phenyl-1H-pyrazole-5-carboxamide], the CC50 in data set [2] turned out to be 4.51 µg/mL (≈ 9.69 µM); in data set [2] (Picorana CC50), 8.63 µg/mL (≈ 18.5 µM).

For the compound `CC(C)c1ccc2c(c1)OC1(O)c3ccccc3C(=O)C21NC(=O)c1cccnc1` (stereo not shown) [Example 230, N-(4b-Hydroxy-7-isopropyl-10-oxo-9b,10-dihydro-4bH-indeno[1,2-b]benzofuran-9b-yl)nicotinamide], the CC50 was above 10 µg/mL in data set [2] and 42.8 µg/mL (≈ 107 µM) in data set [2] (Picorana CC50).

For `CC(C)c1ccc2c(c1)OC1(O)c3cccc(N)c3C(=O)C21NC(=O)c1ccc(N)o1` (stereo not shown) [Example 232, 5-amino-N-(1-amino-4b-hydroxy-7-isopropyl-10-oxo-9b,10-dihydro-4bH-indeno[1,2-b]benzofuran-9b-yl)furane-2-carboxamide], the CC50 was above 10 µg/mL in data set [2] and above 50 µg/mL in data set [2] (Picorana CC50).

As for `Cc1onc(-c2c(Cl)cccc2Cl)c1C(=O)NC12C(=O)c3ccccc3C1(O)Oc1cc(C(C)C)ccc12` (stereo not shown) [Example 236, 3-(2,6-dichlorophenyl)-N-(4b-hydroxy-7-isopropyl-10-oxo-9b,10-dihydro-4bH-benzo[d]indeno[1,2-b]furan-9b-yl)-5-methylisooxazole-4-carboxamide], the CC50 was above 10 µg/mL in data set [2] and 21.4 µg/mL (≈ 38.9 µM) in data set [2] (Picorana CC50).

Consider `CC(C)c1ccc2c(c1)OC1(O)c3cccc(N)c3C(=O)C21NC(=O)C1c2ccccc2Oc2ccccc21` (stereo not shown) [Example 237, N-(1-Amino-4b-hydroxy-7-isopropyl-10-oxo-9b,10-dihydro-4bH-benzo[d]indeno[1,2-b]furan-9b-yl)-9H-xanthene-9-carboxamide], for which the results for the CC50 in data set [2] and in data set [2] (Picorana CC50) were above 10 µg/mL and 6.27 µg/mL (≈ 12.1 µM), respectively.

As to `CC(C)c1ccc2c(c1)OC1(O)c3ccccc3C(=O)C21NC(=O)c1cnnc2ccccc12` (stereo not shown) [Example 239, N-(4b-hydroxy-7-isopropyl-10-oxo-9b,10-dihydro-4bH-benzo[d]indeno[1,2-b]furan-9b-yl)cinnoline-4-carboxamide], the CC50 in data set [2] is above 10 µg/mL; in data set [2] (Picorana CC50), above 50 µg/mL.

In the case of `CC(C)c1ccc2c(c1)OC1(O)c3cccc(N)c3C(=O)C21NC(=O)c1c2ccccc2nc2ccccc12` (stereo not shown) [Example 241, N-(1-Amino-4b-hydroxy-7-isopropyl-10-oxo-9b,10-dihydro-4bH-benzo[d]indeno[1,2-b]furan-9b-yl)acridine-9-carboxamide], the CC50 was above 10 µg/mL in data set [2] and 7.86 µg/mL (≈ 15.2 µM) in data set [2] (Picorana CC50).

For `COc1cc(C(=O)NC23C(=O)c4c(N)cccc4C2(O)Oc2cc(C(C)C)ccc23)nc2ccccc12` (stereo not shown) [Example 247, N-(1-Amino-4b-hydroxy-7-isopropyl-10-oxo-9b,10-dihydro-4bH-benzo[d]indeno[1,2-b]furan-9b-yl)-4-methoxyquinoline-2-carboxamide], the CC50 is above 10 µg/mL in data set [2] and 20 µg/mL (≈ 40.4 µM) in data set [2] (Picorana CC50).

`CC(C)c1ccc2c(c1)OC1(O)c3cccc(N)c3C(=O)C21NC(=O)c1cnccc1Cl` (stereo not shown) [Example 254, N-(1-Amino-4b-hydroxy-7-isopropyl-10-oxo-9b,10-dihydro-4bH-indeno[1,2-b]benzofuran-9b-yl)-4-chloronicotinamide] showed a CC50 in data set [2] above 10 µg/mL.

Compound `CC(C)c1ccc2c(c1)OC1(O)c3cccc(N)c3C(=O)C21NC(=O)c1sc2ccccc2c1Br` (stereo not shown) [Example 264] registered a CC50 in data set [2] above 10 µg/mL.

For the compound `COc1c(C(=O)NC23C(=O)c4c(N)cccc4C2(O)Oc2cc(C(C)C)ccc23)cnc2ccc(F)cc12` (stereo not shown) [Example 267, N-(1-Amino-4b-hydroxy-7-isopropyl-10-oxo-9b,10-dihydro-4bH-indeno[1,2-b]benzofuran-9b-yl)-6-fluoro-4-methoxyquinoline-3-carboxamide], the figures for the CC50 in data set [2] and in data set [2] (Picorana CC50) were 0.86 µg/mL (≈ 1.67 µM) and 0.87 µg/mL (≈ 1.69 µM), respectively.

Take `CC(C)c1ccc2c(c1)OC1(O)c3cccc(N)c3C(=O)C21NC(=O)c1sc2cc(F)ccc2c1Cl` (stereo not shown) [Example 269, N-(1-Amino-4b-hydroxy-7-isopropyl-10-oxo-9b,10-dihydro-4bH-indeno[1,2-b]benzofuran-9b-yl)-3-chloro-6-fluorobenzo[b]thiophene-2-carboxamide]: in data set [2], the CC50 is above 10 µg/mL.

Take `Cc1ccc2c(Cl)c(C(=O)NC34C(=O)c5c(N)cccc5C3(O)Oc3cc(C(C)C)ccc34)sc2c1` (stereo not shown) [Example 270, N-(1-Amino-4b-hydroxy-7-isopropyl-10-oxo-9b,10-dihydro-4bH-indeno[1,2-b]benzofuran-9b-yl)-3-chloro-6-methylbenzo[b]thiophene-2-carboxamide]: the figures for the CC50 in data set [2] and in data set [2] (Picorana CC50) were 5.93 µg/mL (≈ 11.4 µM) and 6.57 µg/mL (≈ 12.7 µM), respectively.

Turning to `CC(C)c1ccc2c(c1)OC1(O)c3cccc(N)c3C(=O)C21NC(=O)c1ccc2nccnc2c1` (stereo not shown) [Example 277, N-(1-Amino-4b-hydroxy-7-isopropyl-10-oxo-9b,10-dihydro-4bH-indeno[1,2-b]benzofuran-9b-yl)quinoxaline-6-carboxamide], the CC50 in data set [2] was above 10 µg/mL.

Regarding `Cc1ccn2cc(C(=O)NC34C(=O)c5c(N)cccc5C3(O)Oc3cc(C(C)C)ccc34)nc2c1` (stereo not shown) [Example 280, N-(1-Amino-4b-hydroxy-7-isopropyl-10-oxo-9b,10-dihydro-4bH-indeno[1,2-b]benzofuran-9b-yl)-7-methylimidazo[1,2-a]pyridine-2-carboxamide], in data set [2], the CC50 is above 10 µg/mL.

As for `Cc1cc(C)n2ncc(C(=O)NC34C(=O)c5c(N)cccc5C3(O)Oc3cc(C(C)C)ccc34)c2n1` (stereo not shown) [Example 282, N-(1-Amino-4b-hydroxy-7-isopropyl-10-oxo-9b,10-dihydro-4bH-indeno[1,2-b]benzofuran-9b-yl)-5,7-dimethylpyrazolo[1,5-a]pyrimidine-3-carboxamide], the CC50 is above 10 µg/mL in data set [2] and 6.78 µg/mL (≈ 14 µM) in data set [2] (Picorana CC50).

Regarding `CC(C)c1ccc2c(c1)OC1(O)c3cccc(N)c3C(=O)C21NC(=O)c1cc2ccccn2c1` (stereo not shown) [Example 283, N-(1-Amino-4b-hydroxy-7-isopropyl-10-oxo-9b,10-dihydro-4bH-indeno[1,2-b]benzofuran-9b-yl) indolizine-2-carboxamide], the CC50 was above 10 µg/mL in data set [2] and 5.47 µg/mL (≈ 12.1 µM) in data set [2] (Picorana CC50).

For `CC(C)c1ccc2c(c1)OC1(O)c3cccc(N)c3C(=O)C21NC(=O)c1cc(C(C)C)nc2c1cnn2C(C)C` (stereo not shown) [Example 284, N-(1-Amino-4b-hydroxy-7-isopropyl-10-oxo-9b,10-dihydro-4bH-indeno[1,2-b]benzofuran-9b-yl)-1,6-diisopropyl-1H-pyrazolo[3,4-b]pyridine-4-carboxamide], the CC50 in data set [2] was determined as 3.71 µg/mL (≈ 6.88 µM); in data set [2] (Picorana CC50) it was 4.56 µg/mL (≈ 8.45 µM).

On to `Cc1c(C(=O)NC23C(=O)c4c(N)cccc4C2(O)Oc2cc(C(C)C)ccc23)cnc2ccnn12` (stereo not shown) [Example 289, N-(1-Amino-4b-hydroxy-7-isopropyl-10-oxo-9b,10-dihydro-4bH-indeno[1,2-b]benzofuran-9b-yl)-7-methylpyrazolo[1,5-a]pyrimidine-6-carboxamide], for which, in data set [2], the CC50 is above 10 µg/mL.
